Laboratory results from PubChem BioAssay (NCI).
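Growth conditions: 96-well plates. Treatment: test compound, 48 hours, 5 concentrations. Analysis: linear interpolation between bracketing concentrations; unreached endpoints set to highest concentration. TGI denotes the concentration required for complete inhibition of growth.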

Key:
Test in all cases: DTP human tumour cell line panel, 48 h
[1] = test system: MALME-3M melanoma
[2] = test system: UACC-62 melanoma
[3] = test system: SNB-19 CNS
[4] = test system: NCI-H460 lung
[5] = test system: 786-0 renal
[6] = test system: LOX IMVI melanoma
[7] = test system: RPMI-8226 leukemia
[8] = test system: CCRF-CEM leukemia
[9] = test system: SF-268 CNS
[10] = test system: UO-31 renal
[11] = test system: SNB-78 CNS
[12] = test system: SF-539 CNS
[13] = test system: KM20L2 colon
[14] = test system: U251 CNS
[15] = test system: DMS 273 small cell lung
[16] = test system: HOP-62 NSCLC
[17] = test system: SNB-75 CNS
[18] = test system: DLD-1 colon
[19] = test system: XF 498 CNS
[20] = test system: NCI-H23 lung
[21] = test system: SK-OV-3 ovarian
[22] = test system: OVCAR-3 ovarian
[23] = test system: OVCAR-4 ovarian
[24] = test system: ACHN renal
[25] = test system: NCI-H226 lung
[26] = test system: A498 renal
[27] = test system: SK-MEL-28 melanoma
[28] = test system: SK-MEL-5 melanoma
[29] = test system: HOP-92 NSCLC
[30] = test system: HOP-18 NSCLC
[31] = test system: UACC-257 melanoma
[32] = test system: DMS 114 small cell lung
[33] = test system: OVCAR-5 ovarian
[34] = test system: HL-60(TB) leukemia
[35] = test system: COLO 205 colon
[36] = test system: LXFL 529 NSCLC
[37] = test system: KM12 colon
[38] = test system: SN12C renal
[39] = test system: A549 NSCLC
[40] = test system: M19-MEL melanoma
[41] = test system: NCI-H522 lung
[42] = test system: SW-620 colon
[43] = test system: M14 melanoma
[44] = test system: EKVX NSCLC
[45] = test system: CAKI-1 renal
[46] = test system: HCC-2998 colon
[47] = test system: MOLT-4 leukemia
[48] = test system: SK-MEL-2 melanoma
[49] = test system: HCT-15 colon
[50] = test system: OVCAR-8 ovarian
[51] = test system: HT29 colon
[52] = test system: K-562 leukemia
[53] = test system: TK-10 renal
[54] = test system: HCT-116 colon
[55] = test system: IGROV1 ovarian
[56] = test system: SF-295 CNS
[57] = test system: RXF 393 renal

CC(=O)c1ccccc1NC(=O)C(=O)C(C(=O)c1ccc2ccccc2c1)C1OC(=O)c2ccccc21 (stereo unspecified)
TGI [1]: 23.3 µM | TGI [2]: 28.1 µM | TGI [3]: 35.3 µM | TGI [4]: > 100 µM | TGI [5]: 20.9 µM | TGI [6]: 26.4 µM | TGI [7]: 52.7 µM | TGI [8]: 40 µM | TGI [9]: 51 µM | TGI [10]: 29.1 µM | TGI [11]: 84.8 µM | TGI [12]: 22.1 µM | TGI [13]: 94 µM | TGI [14]: 40.7 µM | TGI [15]: 44.5 µM | TGI [16]: 28.4 µM | TGI [17]: 25.6 µM | TGI [18]: 32.3 µM | TGI [19]: 18.1 µM | TGI [20]: 26.8 µM | TGI [21]: > 100 µM | TGI [22]: 54.3 µM | TGI [23]: 57 µM | TGI [24]: > 100 µM | TGI [25]: 7.86 µM | TGI [26]: 43.9 µM | TGI [27]: 32.5 µM | TGI [28]: 24.4 µM | TGI [29]: 41.1 µM | TGI [30]: 38.7 µM | TGI [31]: 61.8 µM | TGI [32]: 43 µM | TGI [33]: 52.9 µM | TGI [34]: 43.6 µM | TGI [35]: 30.2 µM | TGI [36]: 26.3 µM | TGI [37]: 52.2 µM | TGI [38]: 37.9 µM | TGI [39]: 70.5 µM | TGI [40]: 22.8 µM | TGI [41]: 29.2 µM | TGI [42]: 40.6 µM | TGI [43]: 36.6 µM | TGI [44]: > 100 µM | TGI [45]: 48.1 µM | TGI [46]: 18.3 µM | TGI [47]: > 100 µM | TGI [48]: 24.9 µM | TGI [49]: 40.1 µM | TGI [50]: 94.8 µM | TGI [51]: 92.4 µM | TGI [52]: 70.3 µM | TGI [53]: 92.4 µM | TGI [54]: 29.6 µM | TGI [55]: 52.6 µM

N/C=N/S(=O)(=O)c1ccc(NC(=O)COC(=O)c2cccc3c(=O)c4ccccc4[nH]c23)cc1
TGI [1]: > 100 µM | TGI [2]: > 100 µM | TGI [3]: > 100 µM | TGI [4]: > 100 µM | TGI [5]: > 100 µM | TGI [6]: > 100 µM | TGI [7]: > 100 µM | TGI [8]: > 100 µM | TGI [10]: > 100 µM | TGI [12]: > 100 µM | TGI [14]: > 100 µM | TGI [15]: > 100 µM | TGI [16]: > 100 µM | TGI [17]: > 100 µM | TGI [18]: > 100 µM | TGI [19]: > 100 µM | TGI [20]: > 100 µM | TGI [21]: > 100 µM | TGI [22]: > 100 µM | TGI [24]: > 100 µM | TGI [25]: > 100 µM | TGI [27]: > 100 µM | TGI [28]: > 100 µM | TGI [30]: > 100 µM | TGI [31]: > 100 µM | TGI [32]: > 100 µM | TGI [34]: > 100 µM | TGI [35]: > 100 µM | TGI [37]: > 100 µM | TGI [38]: > 100 µM | TGI [56]: > 100 µM | TGI [39]: > 100 µM | TGI [40]: > 100 µM | TGI [41]: > 100 µM | TGI [42]: > 100 µM | TGI [43]: > 100 µM | TGI [44]: > 100 µM | TGI [57]: > 100 µM | TGI [47]: > 100 µM | TGI [49]: > 100 µM | TGI [50]: > 100 µM | TGI [51]: > 100 µM | TGI [52]: > 100 µM | TGI [53]: > 100 µM | TGI [54]: > 100 µM | TGI [55]: > 100 µM
